# Measurements published in patent publication US12617773B2, “Azetidin-3-ylmethanol derivatives as CCR6 receptor modulators” (Idorsia Pharmaceuticals Ltd, priority 2020, dated 2026).
# Biological target: T1, human CCR6 (Homo sapiens, UniProt P51684)
# T1 construct: expressed in transfected cells; host or cells: HEK-293
# T1 sequence (P51684 1-374): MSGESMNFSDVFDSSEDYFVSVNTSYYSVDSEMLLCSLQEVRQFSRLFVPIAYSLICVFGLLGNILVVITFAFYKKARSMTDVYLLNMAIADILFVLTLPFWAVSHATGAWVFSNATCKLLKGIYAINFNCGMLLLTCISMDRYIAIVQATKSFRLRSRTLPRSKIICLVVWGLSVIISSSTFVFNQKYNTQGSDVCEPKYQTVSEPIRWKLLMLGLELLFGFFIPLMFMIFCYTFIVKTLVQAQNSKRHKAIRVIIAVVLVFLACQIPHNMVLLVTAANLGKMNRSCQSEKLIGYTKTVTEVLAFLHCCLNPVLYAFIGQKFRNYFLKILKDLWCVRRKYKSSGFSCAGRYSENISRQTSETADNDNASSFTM
# Experiment: FLIPR assay (inhibition of CCL20-induced calcium signal)
# Assay type: cell-based
# Conditions: HEK-293 cells expressing human CCR6; mean values where determined several times; read-out: FLIPR IC50
# Experimental: FLIPR assay: The bioactivity of compounds is tested in a fluorometric imaging plate reader (FLIPR: Molecular Devices) using engineered HEK-293 cells expressing the human CCR6 (GenBank: AY242126). Frozen cells are plated on Poly-L-Lysine precoated 384-well plates 2 days prior to bioassay in DMEM medium supplemented with 10% FCS and 1% Penicillin-Streptomycin. […] This buffer, but lacking the dye, is also used for washing and compound dilution steps (assay buffer). Cells are washed free of excess dye with a wash-station (Biotek), leaving 40 microliter of assay buffer at the end. Cells were incubated for 15 minutes at room temperature in the dark, before adding compounds. Stock solutions of test compounds are made up at a concentration of 10 mM in DMSO, and serially diluted first in DMSO and then transferred in assay buffer to concentrations required for inhibition dose response curves. After a 45-minute incubation period in assay buffer at room temperature, 10 microliters of each compound dilution are transferred from a compound plate to the plate containing the recombinant cells in the FLIPR instrument according to the manufacturer's instructions. After cells and compounds were preincubated for 30 minutes at room temperature in the dark, 10 microliter agonist CCL20 (Peprotech) at a final concentration of 10 nM is added, again using the FLIPR instrument. Changes in fluorescence are monitored before and after addition of the test compounds and agonist. Emission peak values above base level after CCL20 addition are exported after base line subtraction.
# The calculated IC50 values may fluctuate depending on the daily assay performance. Fluctuations of this kind are known to those skilled in the art.
row,Structure (SMILES),IC50
1,COc1ccc(C(C)(O)CCc2cncc([C@@](O)(c3ccc(C(C)C)cc3)C3(C)CN(C)C3)c2)cc1 (stereo partly shown) [Example 68],17.9 nM
2,COc1ccccc1C(C)(O)CCc1cncc([C@@](O)(c2ccc(C(C)C)cc2)C2(C)CN(C)C2)c1 (stereo partly shown) [Example 69],16.1 nM
3,CC(C)c1ccc([C@](O)(c2cncc(CCC(C)(O)c3ccn(C)n3)c2)C2(C)CN(C)C2)cc1 (stereo partly shown) [Example 70],434 nM
4,Cc1nc(C(C)(O)CCc2cncc([C@@](O)(c3ccc(C(C)C)cc3)C3(C)CN(C)C3)c2)cs1 (stereo partly shown) [Example 71],147 nM
5,COc1cccc(C(C)(O)CCc2cncc([C@@](O)(c3ccc(C(C)C)cc3)C3(C)CN(C)C3)c2)n1 (stereo partly shown) [Example 72],15 nM
6,CC(C)c1ccc([C@](O)(c2cncc(CCC(C)(O)c3ncccn3)c2)C2(C)CN(C)C2)cc1 (stereo partly shown) [Example 73],112 nM
7,Cc1cc(C(C)(O)CCc2cncc([C@@](O)(c3ccc(C(C)C)cc3)C3(C)CN(C)C3)c2)nn1C (stereo partly shown) [Example 74],154 nM
8,Cc1cc(C(C)(O)CCc2cncc(C(O)(c3ccc(C(C)C)cc3)C3(C)CN(C)C3)c2)ncn1 (stereo not shown) [Example 75],184 nM
9,Cc1cc(C(O)CCc2cncc([C@@](O)(c3ccc(C(C)C)cc3)C3(C)CN(C)C3)c2)nn1C (stereo partly shown) [Example 76],627 nM
10,CC(C)c1ccc([C@](O)(c2cncc(CCC3(O)CCCc4cccnc43)c2)C2(C)CN(C)C2)cc1 (stereo partly shown) [Example 77],52.1 nM
11,CC(C)c1ccc([C@](O)(c2cncc(CCC3(O)CCc4cccnc43)c2)C2(C)CN(C)C2)cc1 (stereo partly shown) [Example 78],80.6 nM
12,CCC(O)(CCc1cncc([C@@](O)(c2ccc(C(C)C)cc2)C2(C)CN(C)C2)c1)c1ccccn1 (stereo partly shown) [Example 79],30 nM
13,CCC(O)(CCc1cncc(C(O)(c2ccc(C(C)C)cc2)C2(C)CN(C)C2)c1)c1cccc(OC)n1 (stereo not shown) [Example 80],10.5 nM
14,CC(C)c1ccc([C@](O)(c2cncc(CCc3cc4ccccc4[nH]3)c2)C2(C)CN(C)C2)cc1 [Example 81],19.1 nM
15,"CN1CC(C)([C@](O)(c2ccc(C3CC3)cc2)c2cncc(-c3nc(C4CCOCC4)no3)c2)C1 [Example 82, (R)-(4-Cyclopropyl-phenyl)-(1,3-dimethyl-azetidin-3-yl)-{5-[3-(tetrahydro-pyran-4-yl)-[1,2,4]oxadiazol-5-yl]-pyridin-3-yl}-methanol]",185 nM
16,COCC(C)(C)c1noc(-c2cncc([C@@](O)(c3ccc(C4CC4)cc3)C3(C)CN(C)C3)c2)n1 [Example 83],128 nM
17,CN1CC(C)([C@](O)(c2ccc(C3CC3)cc2)c2cncc(-c3nc(COC4CCC4)no3)c2)C1 [Example 84],52.8 nM
18,CCCc1ccc([C@](O)(c2cncc(-c3nc(COC4CCOCC4)no3)c2)C2(C)CN(C)C2)cc1 [Example 85],89.9 nM
19,CCCc1ccc([C@](O)(c2cncc(-c3nc(C4CCOCC4)no3)c2)C2(C)CN(C)C2)cc1 [Example 86],75.3 nM
20,CCCc1ccc([C@](O)(c2cncc(-c3nc(COC4CCC4)no3)c2)C2(C)CN(C)C2)cc1 [Example 87],61.5 nM
21,CC(C)c1ccc([C@](O)(c2cncc(-c3nc(C4CCOCC4)no3)c2)C2(C)CN(C)C2)cc1 [Example 88],98.4 nM
22,CC(C)c1ccc([C@](O)(c2cncc(-c3nc(CN4CCOCC4)no3)c2)C2(C)CN(C)C2)cc1 [Example 89],231 nM
23,CC1CN(Cc2noc(-c3cncc([C@@](O)(c4ccc(C(C)C)cc4)C4(C)CN(C)C4)c3)n2)CC(C)O1 (stereo partly shown) [Example 90],163 nM

row,Structure (SMILES),IC50
1,CC(C)c1ccc([C@](O)(c2cncc(-c3nc(C4(C)CCOCC4)no3)c2)C2(C)CN(C)C2)cc1 [Example 91],46.2 nM
2,CC(C)c1ccc([C@](O)(c2cncc(-c3nc([C@@H]4C[C@H]5CC[C@@H]4O5)no3)c2)C2(C)CN(C)C2)cc1 [Example 92],81.5 nM
3,CC(C)c1ccc([C@](O)(c2cncc(-c3nc(COC4CCOCC4)no3)c2)C2(C)CN(C)C2)cc1 [Example 93],86.8 nM
4,"CC(C)c1ccc([C@](O)(c2cncc(-c3nc(N4CCOCC4)no3)c2)C2(C)CN(C)C2)cc1 [Example 94, (R)-(1,3-Dimethyl-azetidin-3-yl)-(4-isopropyl-phenyl)-[5-(3-morpholin-4-yl-[1,2,4]oxadiazol-5-yl)-pyridin-3-yl]-methanol]",71.1 nM
5,"COC1(c2noc(-c3cncc([C@@](O)(c4ccc(C5CC5)cc4)C4(C)CN(C)C4)c3)n2)CCOCC1 [Example 95, (R)-(4-Cyclopropyl-phenyl)-(1,3-dimethyl-azetidin-3-yl)-{5-[3-(4-methoxy-tetrahydro-pyran-4-yl)-[1,2,4]oxadiazol-5-yl]-pyridin-3-yl}-methanol]",196 nM
6,CN1CC(C)([C@](O)(c2ccc(C3CC3)cc2)c2cncc(-c3nc(C45CC(CO)(C4)C5)no3)c2)C1 [Example 96],130 nM
7,CC(C)c1ccc([C@](O)(c2cncc(-c3nc(C45CC(CO)(C4)C5)no3)c2)C2(C)CN(C)C2)cc1 [Example 97],71.3 nM
8,CC(C)c1ccc([C@](O)(c2cncc(-c3nc(C(C)(C)CO)no3)c2)C2(C)CN(C)C2)cc1 [Example 98],60 nM
9,CC(C)c1ccc([C@](O)(c2cncc(-c3nc(C(C)(C)O)no3)c2)C2(C)CN(C)C2)cc1 [Example 99],111 nM
10,COC(C)(C)c1noc(-c2cncc([C@@](O)(c3ccc(C(C)C)cc3)C3(C)CN(C)C3)c2)n1 [Example 100],69.9 nM
11,COC1(c2noc(-c3cncc([C@@](O)(c4ccc(C(C)C)cc4)C4(C)CN(C)C4)c3)n2)CCC1 [Example 101],41.8 nM
12,CC(C)c1ccc([C@](O)(c2cncc(-c3nc(CC(C)(C)O)no3)c2)C2(C)CN(C)C2)cc1 [Example 102],103 nM
13,"CC(C)c1ccc([C@](O)(c2cncc(-c3noc(CS(C)(=O)=O)n3)c2)C2(C)CN(C)C2)cc1 [Example 103, (R)-(1,3-Dimethyl-azetidin-3-yl)-(4-isopropyl-phenyl)-[5-(5-methanesulfonylmethyl-[1,2,4]oxadiazol-3-yl)-pyridin-3-yl]-methanol]",110 nM
14,COCCc1nc(-c2cncc([C@@](O)(c3ccc(C(C)C)cc3)C3(C)CN(C)C3)c2)no1 [Example 104],42.2 nM
15,COCc1nc(-c2cncc([C@@](O)(c3ccc(C(C)C)cc3)C3(C)CN(C)C3)c2)no1 [Example 105],43.4 nM
16,CC(C)c1ccc([C@](O)(c2cncc(-c3noc(C4CCOC4)n3)c2)C2(C)CN(C)C2)cc1 (stereo partly shown) [Example 106],46.7 nM
17,CC(C)c1ccc([C@](O)(c2cncc(-c3noc(C4CCOCC4)n3)c2)C2(C)CN(C)C2)cc1 [Example 107],54.3 nM
18,CC(C)c1ccc([C@](O)(c2cncc(-c3noc(C4(O)CCCCC4)n3)c2)C2(C)CN(C)C2)cc1 [Example 108],21 nM
19,CC(C)c1ccc([C@](O)(c2cncc(-c3noc(COC(C)(C)C)n3)c2)C2(C)CN(C)C2)cc1 [Example 109],21.2 nM
20,CC(C)c1ccc([C@](O)(c2cncc(-c3noc(CC4CCOCC4)n3)c2)C2(C)CN(C)C2)cc1 [Example 110],39.1 nM
21,CC(C)c1ccc([C@](O)(c2cncc(-c3noc(C4CCC(O)CC4)n3)c2)C2(C)CN(C)C2)cc1 (stereo partly shown) [Example 111],43 nM
22,CC(C)c1ccc([C@](O)(c2cncc(-c3noc(CC4(O)CCCCC4)n3)c2)C2(C)CN(C)C2)cc1 [Example 112],38.5 nM
23,COC1(c2nc(-c3cncc([C@@](O)(c4ccc(C(C)C)cc4)C4(C)CN(C)C4)c3)no2)CCC1 [Example 113],29.8 nM
